Assay results: ChEMBL document CHEMBL1142493, “Structure-based approach to the development of potent and selective inhibitors of dihydrofolate reductase from cryptosporidium” (J Med Chem, 2008)

Experiment: Inhibition of Cryptosporidium hominis dihydrofolate reductase expressed in Escherichia coli by spectrophotometry

SMILES	IC50
COc1cc(-c2c(C)cccc2C)cc(C(C)C#Cc2c(C)nc(N)nc2N)c1 (racemic)	2.1 nM
COc1cc(C(C)C#Cc2c(C)nc(N)nc2N)ccc1-c1c(C(C)C)cccc1C(C)C (racemic)	16 nM
